How the values were obtained:
[1] = xn = mol fraction of the nth substance listed; details: 101 kPa, Liquid, x2 = 0; for mass density: Vibrating tube method; for speed of sound: sound velocity cell
[2] = Liquid; for mass density: Vibrating tube method; for speed of sound: sound velocity cell

CCO [ethanol] + CC(=O)[O-].[NH3+]CCO
[1]
Details	mass density [kg/m3]	speed of sound [m/s]
288.15 K	793.828	1177.8
290.65 K	791.692	1169.2
293.15 K	789.553	1160.6
295.65 K	787.411	1152
298.15 K	785.261	1143.5
300.65 K	783.106	1135
303.15 K	780.944	1126.5
305.65 K	778.773	1118.1
308.15 K	776.593	1109.7
310.65 K	774.405	1101.2
313.15 K	772.204	1092.8
315.65 K	769.995	1084.5
318.15 K	767.77	1076.2
320.65 K	765.534	1067.9
323.15 K	763.296	1059.6

CO [methanol] + CC(=O)[O-].[NH3+]CCO
[1]
Details	mass density [kg/m3]	speed of sound [m/s]
288.15 K	796.694	1136.3
290.65 K	793.768	1127.7
293.15 K	791.418	1119.5
295.65 K	789.066	1111.3
298.15 K	786.71	1103
300.65 K	784.349	1094.7
303.15 K	781.983	1086.5
305.65 K	779.612	1078.3
308.15 K	777.234	1070.2
310.65 K	774.851	1062.1
313.15 K	772.458	1054
315.65 K	770.058	1045.9
318.15 K	767.647	1037.9
320.65 K	765.229	1029.9
323.15 K	762.809	1022

O [water]
[2], 101 kPa
Details	mass density [kg/m3]	speed of sound [m/s]
290.65 K	998.68	1474.7
295.65 K	997.65	1489.9
300.65 K	996.37	1503.4
305.65 K	994.86	1515.1
310.65 K	993.15	1525
313.15 K	–	1529.3
315.15 K	991.24	–
315.65 K	–	1533.2
318.15 K	–	1536.6
320.65 K	989.15	1539.6
323.15 K	988.04	1542.1

CC(=O)[O-].[NH3+]CCO [2-hydroxyethylammonium acetate]
[2]
Details	mass density, 101 kPa [kg/m3]	mass density, 101.33 kPa [kg/m3]	speed of sound, 101 kPa [m/s]	speed of sound, 101.33 kPa [m/s]
288.15 K	1154.7	–	1817.2	–
290.65 K	1153.28	–	1810	–
293.15 K	1151.87	–	1803.2	–
295.65 K	1150.45	–	1796.8	–
298.15 K	–	1149.04	1790.7	1790.7
300.65 K	1147.63	–	1784.8	–
303.15 K	1146.22	–	1779	–
305.65 K	1144.8	–	1773.4	–
308.15 K	1143.39	–	1767.9	–
310.65 K	1141.96	–	1762.5	–
313.15 K	1140.55	–	1757.2	–
315.15 K	1139.18	–	–	–
315.65 K	1139.18	–	1751.9	–
318.15 K	1137.82	–	1746.5	–
320.65 K	1136.45	–	1741.3	–
323.15 K	1135.08	–	1736	–

CO [methanol]
[2], 101 kPa
Details	mass density [kg/m3]	speed of sound [m/s]
288.15 K	796.694	1136.3
290.65 K	793.768	1127.7
293.15 K	791.418	1119.5
295.65 K	789.066	1111.3
298.15 K	786.71	1103
300.65 K	784.349	1094.7
303.15 K	781.983	1086.5
305.65 K	779.612	1078.3
308.15 K	777.234	1070.2
310.65 K	774.851	1062.1
313.15 K	772.458	1054
315.65 K	770.058	1045.9
318.15 K	767.647	1037.9
320.65 K	765.229	1029.9
323.15 K	762.809	1022

CCO [ethanol]
[2], 101 kPa
Details	mass density [kg/m3]	speed of sound [m/s]
288.15 K	793.828	1177.8
290.65 K	791.692	1169.2
293.15 K	789.553	1160.6
295.65 K	787.411	1152
298.15 K	785.261	1143.5
300.65 K	783.106	1135
303.15 K	780.944	1126.5
305.65 K	778.773	1118.1
308.15 K	776.593	1109.7
310.65 K	774.405	1101.2
313.15 K	772.204	1092.8
315.65 K	769.995	1084.5
318.15 K	767.77	1076.2
320.65 K	765.534	1067.9
323.15 K	763.296	1059.6

O [water] + CC(=O)[O-].[NH3+]CCO
[1]
Details	mass density [kg/m3]	speed of sound [m/s]
290.65 K	998.68	1474.7
295.65 K	997.65	1489.9
300.65 K	996.37	1503.4
305.65 K	994.86	1515.1
310.65 K	993.15	1525
313.15 K	–	1529.3
315.15 K	991.24	–
315.65 K	–	1533.2
318.15 K	–	1536.6
320.65 K	989.15	1539.6
323.15 K	988.04	1542.1
